Laboratory results as given in patent publication US20040053822A1, “Inducing cellular immune responses to mage2/3 using peptide and nucleic acid compositions” (priority 2002, published 2004).
Residues, ends and D or L forms follow the SMILES beside them.

Columns and labels:
[1] = tested on: 0.221A2.1 cell line (peptide-loaded target); experiment: Primary CTL induction from normal donor PBMC, 51Cr release on peptide-pulsed targets; assay type: cell-based, human
Experimental: (§1) The melanoma cells were treated with 100 U/ml IFNγ (Genzyme) for 48 hours at 37° C. before use as targets in the ^51Cr release and in situ IFNγ assays.
The monocytes were purified by plating 10×10^6 PBMC/well in a 6-well plate. After 2 hours at 37° C., the non-adherent cells were removed by gently shaking the plates and aspirating the supernatants. The wells were washed a total of three times with 3 ml RPMI to remove most of the non-adherent and loosely adherent cells. Three ml of complete medium containing 50 ng/ml of GM-CSF and 1,000 U/ml of IL4 were then added to each well. DC were used for CTL induction cultures following 7 days of culture.
Induction of CTL with DC and Peptide: CD8+ T-cells were isolated by positive selection with Dynal immunomagnetic beads (Dynabeads® M-450) and the detacha-bead® reagent. Typically about 200-250×10^6 PBMC were processed to obtain 24×10^6 CD8^+ T-cells (enough for a 48-well plate culture). Briefly, the PBMCs were thawed in RPMI with 30 μg/ml DNAse, washed once with PBS containing 1% human AB serum and resuspended in PBS/1% AB serum at a concentration of 20×10^6 cells/ml. The magnetic beads were washed 3 times with PBS/AB serum, added to the cells (140 μl beads/20×10^6 cells) and incubated for 1 hour at 4° C. with continuous mixing. The beads and cells were washed 4× with PBS/AB serum to remove the nonadherent cells and resuspended at 100×10^6 cells/ml (based on the original cell number) in PBS/AB serum containing 100 μ/ml detacha-bead® reagent and 30 μg/ml DNAse. The mixture is incubated for 1 hour at room temperature with continuous mixing. The beads were washed again with PBS/AB/DNAse to collect the CD8+ T-cells. The DC were collected and centrifuged at 1300 rpm for 5-7 minutes, washed once with PBS with 1% BSA, counted and pulsed with 40 μg/ml of peptide at a cell concentration of 1-2×10^6/ml in the presence of 3 μg/ml β2- microglobulin for 4 hours at 20° C. The DC were then irradiated (4,200 rads), washed 1 time with medium and counted again.
Setting up induction cultures: 0.25 ml cytokine-generated DC (@1×10^5 cells/ml) were co-cultured with 0.25 ml of CD8+ T-cells (@2×10^6 cell/ml) in each well of a 48-well plate in the presence of 10 ng/ml of IL-7. rHuman IL10 was added the next day at a final concentration of 10 ng/ml and rhuman IL2 was added 48 hours later at 10 IU/ml.
Restimulation of the induction cultures with peptide-pulsed adherent cells: Seven and fourteen days after the primary induction the cells were restimulated with peptide-pulsed adherent cells. The PBMCS were thawed and washed twice with RPMI and DNAse. The cells were resuspended at 5×10^6 cells/ml and irradiated at ˜4200 rads. The PBMCs were plated at 2×10^6 in 0.5 ml complete medium per well and incubated for 2 hours at 37° C. The plates were washed twice with RPMI by tapping the plate gently to remove the nonadherent cells and the adherent cells pulsed with 10 μg/ml of peptide in the presence of 3 μg/ml β2 microglobulin in 0.25 ml RPMI/5% AB per well for 2 hours at 37° C. Peptide solution from each well was aspirated and the wells were washed once with RPMI. Most of the media was aspirated from the induction cultures (CD8+ cells) and brought to 0.5 ml with fresh media. The cells were then transferred to the wells containing the peptide-pulsed adherent cells. Twenty four hours later rhuman IL10 was added at a final concentration of 10 ng/ml and rhuman IL2 was added the next day and again 2-3 days later at 50 IU/ml (Tsai et al., Critical Reviews in Immunology 18(l-2):65-75, 1998). Seven days later the cultures were assayed for CTL activity in a ^51Cr release assay. In some experiments the cultures were assayed for peptide-specific recognition in the in situ IFNγ ELISA at the time of the second restimulation followed by assay of endogenous recognition 7 days later. After expansion, activity was measured in both assays for a side by side comparison. […]

[2] = tested on: melanoma cell lines (624 mel and 888 mel); experiment: Primary CTL induction, 51Cr release on tumor targets (endogenous recognition); assay type: cell-based, human
Experimental: as §1
Restimulation of the induction cultures with peptide-pulsed adherent cells: Seven and fourteen days after the primary induction the cells were restimulated with peptide-pulsed adherent cells. The PBMCS were thawed and washed twice with RPMI and DNAse. The cells were resuspended at 5×10^6 cells/ml and irradiated at ˜4200 rads. The PBMCs were plated at 2×10^6 in 0.5 ml complete medium per well and incubated for 2 hours at 37° C. The plates were washed twice with RPMI by tapping the plate gently to remove the nonadherent cells and the adherent cells pulsed with 10 μg/ml of peptide in the presence of 3 μg/ml β2 microglobulin in 0.25 ml RPMI/5% AB per well for 2 hours at 37° C. Peptide solution from each well was aspirated and the wells were washed once with RPMI. Most of the media was aspirated from the induction cultures (CD8+ cells) and brought to 0.5 ml with fresh media. The cells were then transferred to the wells containing the peptide-pulsed adherent cells. Twenty four hours later rhuman IL10 was added at a final concentration of 10 ng/ml and rhuman IL2 was added the next day and again 2-3 days later at 50 IU/ml (Tsai et al., Critical Reviews in Immunology 18(l-2):65-75, 1998). Seven days later the cultures were assayed for CTL activity in a ^51Cr release assay. In some experiments the cultures were assayed for peptide-specific recognition in the in situ IFNγ ELISA at the time of the second restimulation followed by assay of endogenous recognition 7 days later. After expansion, activity was measured in both assays for a side by side comparison.
Seven days after the second restimulation, cytotoxicity was determined in a standard (5 hr) ^51Cr release assay by assaying individual wells at a single E:T. Peptide-pulsed targets were prepared by incubating the cells with 10 μg/ml peptide overnight at 37° C.
Adherent target cells were removed from culture flasks with trypsin-EDTA. Target cells were labelled with 200 μCi of ^51Cr sodium chromate (Dupont, Wilmington, Del.) for 1 hour at 37° C. […] Target cells.(100 μl) and 100 μl of effectors were plated in 96 well round-bottom plates and incubated for 5 hours at 37° C. At that time, 100 μl of supernatant were collected from each well and percent lysis was determined according to the formula: [(cpm of the test sample−cpm of the spontaneous ^51Cr release sample)/(cpm of the maximal ^51Cr release sample−cpm of the spontaneous ^51Cr release sample)]×100. Maximum and spontaneous release were determined by incubating the labelled targets with 1% Trition X-100 and media alone, respectively.
CTL Expansion. […] The cells were split if the cell concentration exceeded 1×10^6/ml and the cultures were assayed between days 13 and 15 at E:T ratios of 30, 10, 3 and 1:1 in the ^51Cr release assay or at 1×10^6/ml in the in situ IFNγ assay using the same targets as before the expansion.
The A2-supermotif cross-reactive binding peptides that were selected for further evaluation were tested in the cellular assay for the ability to induce peptide-specific CTL in normal individuals.

HLA-B*0702 = HLA-B*0702 (Homo sapiens, UniProt P01889); experiment: Purified HLA class I peptide binding assay, B*0702; settings: binding affinity, HLA-B7 supermotif-bearing peptides
HLA-B*3501 = HLA-B*3501 (Homo sapiens, UniProt P01889, A329T/A93T/A95T/C349S/D201E/D98Y/E176V/E187L/E204Q/E69T/I218V/K202T/L119I/Q94N/R155S/R180L/S121R/S35A/S48A/T118I/V127L/V306I/V36M/Y140S/Y91F); experiment: Purified HLA class I peptide binding assay, B*3501; settings: binding affinity, HLA-B7 supermotif-bearing peptides
HLA-B*5101 (B51) = HLA-B*5101 (B51) (Homo sapiens, UniProt P01889, A329T/A93T/A95T/C349S/D138N/D201E/D98Y/E187L/E204Q/E69T/G107R/I218V/K202T/L105A/L119W/N104I/Q94N/R106L/R155S/R180L/S101N/S121T/S35A/S48A/V306I/V36M/Y195H/Y91F); experiment: Purified HLA class I peptide binding assay, B51; settings: binding affinity, HLA-B7 supermotif-bearing peptides; read-out: B*5101 nM
HLA-B*5301 = HLA-B*5301 (Homo sapiens, UniProt P01889, A329T/A93T/A95T/C349S/D201E/D98Y/E176V/E187L/E204Q/E69T/G107R/I218V/K202T/L105A/L119I/N104I/Q94N/R106L/R155S/R180L/S101N/S121R/S35A/S48A/T118I/V127L/V306I/V36M/Y140S/Y91F); experiment: Purified HLA class I peptide binding assay, B*5301; settings: binding affinity, HLA-B7 supermotif-bearing peptides
HLA-B*5401 = HLA-B*5401 (Homo sapiens, UniProt P01889, A329T/C349S/D138N/D201E/E176V/E187T/E204Q/E69G/I76V/K202T/L119W/R155S/R180L/S121T/S35A/S48A/V127L/V306I/V36M/Y140L); experiment: Purified HLA class I peptide binding assay, B*5401; settings: binding affinity, HLA-B7 supermotif-bearing peptides
[3] = Number of donors yielding a positive response/total tested
[4] = number of donors positive over the total number of donors tested
[5] = number of donors positive over total tested, tumor targets

`CC[C@H](C)[C@H](NC(=O)[C@@H](N)CCCCN)C(=O)N[C@@H](Cc1c[nH]c2ccccc12)C(=O)N[C@@H](CCC(=O)O)C(=O)N[C@@H](CCC(=O)O)C(=O)N[C@@H](CC(C)C)C(=O)N[C@@H](CO)C(=O)N[C@H](C(=O)N[C@@H](CC(C)C)C(=O)O)C(C)C` was tested, and the “CTL Wild-type” value [1, 3] was 3/4, the “CTL Wild-type” value [1, 4] was 3/4 and the “CTL Tumor” value [2, 5] was 0/3^.

For `CC(C)C[C@H](NC(=O)[C@H](CC(C)C)NC(=O)[C@H](Cc1ccccc1)NC(=O)[C@H](Cc1c[nH]cn1)NC(=O)[C@@H](NC(=O)[C@H](CC(C)C)NC(=O)[C@H](CCC(=O)O)NC(=O)[C@H](C)NC(=O)[C@@H](NC(=O)[C@@H](N)CCCCN)C(C)C)C(C)C)C(=O)O`, the “CTL Wild-type” value [1, 4] was 0/1 and the “CTL Tumor” value [2, 5] was 0/1^.

With `CC[C@H](C)[C@H](NC(=O)CNC(=O)[C@H](Cc1ccccc1)NC(=O)[C@@H](NC(=O)[C@@H](N)CC(C)C)C(C)C)C(=O)N[C@@H](CCC(=O)O)C(=O)N[C@H](C(=O)N[C@H](C(=O)N[C@@H](CCC(=O)O)C(=O)N[C@H](C(=O)O)C(C)C)C(C)C)C(C)C` the “CTL Wild-type” value [1, 4] was 4/4 and the “CTL Tumor” value [2, 5] was 0/3^.

For `CC[C@H](C)[C@H](NC(=O)CNC(=O)[C@H](Cc1ccccc1)NC(=O)[C@@H](NC(=O)[C@H](CC(C)C)NC(=O)[C@@H](N)CCC(N)=O)C(C)C)C(=O)N[C@@H](CCC(=O)O)C(=O)N[C@@H](CC(C)C)C(=O)N[C@@H](CCSC)C(=O)N[C@@H](CCC(=O)O)C(=O)N[C@H](C(=O)O)C(C)C`, the “CTL Tumor” value ([2]; donors positive over total tested, positive result seen after the second restim.) was 1/3^2.

`CC[C@H](C)[C@H](NC(=O)[C@H](Cc1ccc(O)cc1)NC(=O)[C@H](CC(C)C)NC(=O)[C@H](Cc1c[nH]cn1)NC(=O)CNC(=O)[C@@H](NC(=O)[C@@H]1CCCN1C(=O)[C@@H](N)Cc1ccccc1)[C@@H](C)CC)C(=O)N[C@@H](Cc1ccccc1)C(=O)N[C@@H](C)C(=O)O` (H-FPIGHLYIFA-OH; N-terminus and C-terminus assumed) showed an IC50 (HLA-B*0702) of 39 nM, an IC50 (HLA-B*3501) of 51 nM and an IC50 (HLA-B*5101 (B51)) of 56 nM. For the same compound, the IC50 (HLA-B*5301) was 179 nM and the IC50 (HLA-B*5401) was 0.4 nM.

Compound `CC[C@H](C)[C@H](NC(=O)[C@H](CC(C)C)NC(=O)[C@H](CC(C)C)NC(=O)CNC(=O)[C@H](C)NC(=O)[C@H](CCCCN)NC(=O)[C@@H]1CCCN1C(=O)[C@@H](N)Cc1ccccc1)C(=O)N[C@H](C(=O)N[C@H](C(=O)O)C(C)C)[C@@H](C)CC` (H-FPKAGLLIIV-OH; N-terminus and C-terminus assumed) has an IC50 (HLA-B*0702) of 220 nM, an IC50 (HLA-B*3501) of 878 nM and an IC50 (HLA-B*5101 (B51)) of 190 nM. The IC50 (HLA-B*5301) was 4650 nM and the IC50 (HLA-B*5401) was 1.1 nM.

`CC[C@H](C)[C@H](NC(=O)[C@H](Cc1ccc(O)cc1)NC(=O)[C@H](CO)NC(=O)[C@@H](NC(=O)[C@H](CCC(=O)O)NC(=O)[C@@H](NC(=O)[C@H](CC(C)C)NC(=O)[C@H](C)NC(=O)[C@H](CCCNC(=N)N)NC(=O)[C@@H]1CCCN1C(=O)[C@@H](N)Cc1ccccc1)[C@@H](C)CC)[C@@H](C)O)C(=O)O` (H-FPRALIETSYI-OH; N-terminus and C-terminus assumed) showed an IC50 (HLA-B*0702) of 7.4 nM, an IC50 (HLA-B*3501) of 3600 nM and an IC50 (HLA-B*5101 (B51)) of 70 nM. The IC50 (HLA-B*5301) was 465 nM and the IC50 (HLA-B*5401) was 127 nM.

`CSCC[C@H](NC(=O)[C@@H](NC(=O)[C@@H](NC(=O)[C@@H]1CCCN1C(=O)[C@@H](N)Cc1ccccc1)[C@@H](C)O)[C@@H](C)O)C(=O)N[C@@H](CC(N)=O)C(=O)N[C@@H](Cc1ccc(O)cc1)C(=O)N1CCC[C@H]1C(=O)N[C@@H](CC(C)C)C(=O)O` (H-FPTTMNYPL-OH; N-terminus and C-terminus assumed) was tested, and the IC50 (HLA-B*0702) was 6.4 nM, the IC50 (HLA-B*3501) was 4.5 nM and the IC50 (HLA-B*5101 (B51)) was 423 nM. The IC50 (HLA-B*5301) was 39 nM and the IC50 (HLA-B*5401) was 3 nM.

With `CC[C@H](C)[C@H](NC(=O)CNC(=O)[C@H](Cc1ccccc1)NC(=O)[C@@H](NC(=O)[C@H](CC(C)C)NC(=O)[C@H](CCC(N)=O)NC(=O)[C@H](CC(C)C)NC(=O)[C@@H](N)Cc1ccc(O)cc1)C(C)C)C(=O)N[C@@H](CCC(=O)O)C(=O)N[C@H](C(=O)O)C(C)C` [YLQLVFG1EV] the “CTL Wild-type” value [1, 3] was 313.
